Assay results reported in ChEMBL document CHEMBL1201862, “PubChem BioAssay data set” (2004).
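96-well plates; 48 h exposure; 5 concentrations. Endpoints by linear interpolation between flanking doses. Not reached: highest tested concentration assigned. GI50 is the concentration that inhibits growth by half.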 Calls of active or inactive are those of the source. Cut-off read from the data, not from the text of the source: active = GI50 up to about 1.1 µM and inactive = higher.

Legend:
Assay in all cases: NCI-60 cell line screen, 48 h
Hs-578T = system: Hs-578T
M19-MEL = system: M19-MEL
UACC-62 = system: UACC-62
HOP-18 = system: HOP-18
SN12C = system: SN12C
NCI-H522 = system: NCI-H522
CAKI-1 = system: CAKI-1
HL-60 = system: HL-60
COLO 205 = system: COLO 205
NCI/ADR-RES = system: NCI/ADR-RES
EKVX = system: EKVX
UO-31 = system: UO-31
SK-MEL-2 = system: SK-MEL-2
MDA-MB-435 = system: MDA-MB-435
UACC-257 = system: UACC-257
DLD-1 = system: DLD-1
HCC 2998 = system: HCC 2998
XF498 = system: XF498
Malme-3M = system: Malme-3M
MOLT-4 = system: MOLT-4
IGROV-1 = system: IGROV-1
M14 = system: M14
SW-620 = system: SW-620
HT-29 = system: HT-29
SF-539 = system: SF-539
SF-295 = system: SF-295
RXF 393 = system: RXF 393
OVCAR-5 = system: OVCAR-5
SNB-19 = system: SNB-19
LXFL 529 = system: LXFL 529
CCRF-CEM = system: CCRF-CEM
T47D = system: T47D
ACHN = system: ACHN
SF-268 = system: SF-268
SK-OV-3 = system: SK-OV-3
NCI-H226 = system: NCI-H226
SNB-75 = system: SNB-75
DU-145 = system: DU-145
HCT-15 = system: HCT-15
786-0 = system: 786-0
HOP-92 = system: HOP-92
DMS-273 = system: DMS-273
NCI-H460 = system: NCI-H460
A549 = system: A549
KM-20L2 = system: KM-20L2
NCI-H23 = system: NCI-H23
A498 = system: A498
SNB-78 = system: SNB-78
MCF7 = system: MCF7
OVCAR-8 = system: OVCAR-8
RPMI-8226 = system: RPMI-8226
LOX IMVI = system: LOX IMVI
SK-MEL-28 = system: SK-MEL-28
SK-MEL-5 = system: SK-MEL-5
SR = system: SR
DMS-114 = system: DMS-114
PC-3 = system: PC-3
U-251 = system: U-251
BT-549 = system: BT-549
MDA-N = system: MDA-N
K562 = system: K562
MDA-MB-231 = system: MDA-MB-231
OVCAR-4 = system: OVCAR-4
HOP-62 = system: HOP-62
TK-10 = system: TK-10
HCT-116 = system: HCT-116
OVCAR-3 = system: OVCAR-3
KM12 = system: KM12
RXF 631 = system: RXF 631

CC[N+]1(C)CCC(O)(/C=C/c2ccccc2)C(C(=O)/C=C/c2ccccc2)C1 (stereo not given)
GI50 (Hs-578T): 28.4 µM (inactive)
GI50 (M19-MEL): 9.98 µM (inactive)
GI50 (UACC-62): 16.9 µM (inactive)
GI50 (HOP-18): 16.6 µM (inactive)
GI50 (SN12C): 7.23 µM (inactive)
GI50 (NCI-H522): 1.99 µM (inactive)
GI50 (CAKI-1): 1.85 µM (inactive)
GI50 (HL-60): 2.31 µM (inactive)
GI50 (COLO 205): 3.44 µM (inactive)
GI50 (NCI/ADR-RES): 30.6 µM (inactive)
GI50 (EKVX): 22.5 µM (inactive)
GI50 (UO-31): 15.6 µM (inactive)
GI50 (SK-MEL-2): 19.8 µM (inactive)
GI50 (MDA-MB-435): 12.2 µM (inactive)
GI50 (UACC-257): 10.2 µM (inactive)
GI50 (DLD-1): 4.98 µM (inactive)
GI50 (HCC 2998): 16.7 µM (inactive)
GI50 (XF498): 8.43 µM (inactive)
GI50 (Malme-3M): 15 µM (inactive)
GI50 (MOLT-4): 2.13 µM (inactive)
GI50 (IGROV-1): 18.7 µM (inactive)
GI50 (M14): 11.3 µM (inactive)
GI50 (SW-620): 2.45 µM (inactive)
GI50 (HT-29): 7.59 µM (inactive)
GI50 (SF-539): 7.43 µM (inactive)
GI50 (SF-295): 16.7 µM (inactive)
GI50 (RXF 393): 7.62 µM (inactive)
GI50 (OVCAR-5): 18.1 µM (inactive)
GI50 (SNB-19): 15.3 µM (inactive)
GI50 (LXFL 529): 2.79 µM (inactive)
GI50 (CCRF-CEM): 1.94 µM (inactive)
GI50 (T47D): 15.3 µM (inactive)
GI50 (ACHN): 11.1 µM (inactive)
GI50 (SF-268): 15.6 µM (inactive)
GI50 (SK-OV-3): 18.2 µM (inactive)
GI50 (NCI-H226): 14.7 µM (inactive)
GI50 (SNB-75): 14.7 µM (inactive)
GI50 (DU-145): 19.1 µM (inactive)
GI50 (HCT-15): 4.54 µM
GI50 (786-0): 4.02 µM (inactive)
GI50 (HOP-92): 9.46 µM (inactive)
GI50 (DMS-273): 4.72 µM (inactive)
GI50 (NCI-H460): 15 µM (inactive)
GI50 (A549): 20.3 µM (inactive)
GI50 (KM-20L2): 18.3 µM (inactive)
GI50 (NCI-H23): 15.2 µM (inactive)
GI50 (A498): 21.1 µM (inactive)
GI50 (SNB-78): 24 µM (inactive)
GI50 (MCF7): 3.05 µM (inactive)
GI50 (OVCAR-8): 9.1 µM (inactive)
GI50 (RPMI-8226): 0.706 µM (active)
GI50 (LOX IMVI): 2.79 µM (inactive)
GI50 (SK-MEL-28): 7.4 µM (inactive)
GI50 (SK-MEL-5): 16.6 µM (inactive)
GI50 (SR): 2.34 µM (inactive)
GI50 (DMS-114): 6.62 µM (inactive)
GI50 (PC-3): 14.6 µM (inactive)
GI50 (U-251): 8 µM (inactive)
GI50 (BT-549): 15.7 µM (inactive)
GI50 (MDA-N): 6.11 µM (inactive)
GI50 (K562): 2.7 µM (inactive)
GI50 (MDA-MB-231): 10.8 µM (inactive)
GI50 (OVCAR-4): 13.7 µM (inactive)
GI50 (HOP-62): 19.6 µM (inactive)
GI50 (TK-10): 7.28 µM (inactive)
GI50 (HCT-116): 6 µM (inactive)
GI50 (OVCAR-3): 9.04 µM (inactive)
GI50 (KM12): 3.71 µM (inactive)

CC1(O)CCn2c(=O)c3cc4ccccc4cc3c(=O)n2C1O (stereo not given)
GI50 (M19-MEL): > 100 µM (inactive)
GI50 (UACC-62): > 100 µM (inactive)
GI50 (HOP-18): 26.8 µM (inactive)
GI50 (SN12C): > 100 µM (inactive)
GI50 (NCI-H522): 22 µM (inactive)
GI50 (CAKI-1): > 100 µM (inactive)
GI50 (HL-60): > 100 µM (inactive)
GI50 (COLO 205): > 100 µM (inactive)
GI50 (EKVX): > 100 µM (inactive)
GI50 (SK-MEL-2): > 100 µM (inactive)
GI50 (RXF 631): > 100 µM (inactive)
GI50 (UACC-257): > 100 µM (inactive)
GI50 (DLD-1): > 100 µM (inactive)
GI50 (HCC 2998): > 100 µM (inactive)
GI50 (Malme-3M): > 100 µM (inactive)
GI50 (MOLT-4): > 100 µM (inactive)
GI50 (IGROV-1): > 100 µM (inactive)
GI50 (SW-620): > 100 µM (inactive)
GI50 (HT-29): > 100 µM (inactive)
GI50 (SF-539): > 100 µM (inactive)
GI50 (SF-295): > 100 µM (inactive)
GI50 (RXF 393): > 100 µM (inactive)
GI50 (OVCAR-5): > 100 µM (inactive)
GI50 (SNB-19): > 100 µM (inactive)
GI50 (LXFL 529): > 100 µM (inactive)
GI50 (CCRF-CEM): > 100 µM (inactive)
GI50 (ACHN): > 100 µM (inactive)
GI50 (SF-268): > 100 µM (inactive)
GI50 (SK-OV-3): > 100 µM (inactive)
GI50 (NCI-H226): > 100 µM (inactive)
GI50 (HCT-15): > 100 µM
GI50 (786-0): > 100 µM (inactive)
GI50 (HOP-92): 79.3 µM (inactive)
GI50 (DMS-273): > 100 µM (inactive)
GI50 (NCI-H460): > 100 µM (inactive)
GI50 (A549): > 100 µM (inactive)
GI50 (KM-20L2): > 100 µM (inactive)
GI50 (NCI-H23): > 100 µM (inactive)
GI50 (OVCAR-8): > 100 µM (inactive)
GI50 (RPMI-8226): > 100 µM (inactive)
GI50 (LOX IMVI): > 100 µM (inactive)
GI50 (SK-MEL-28): > 100 µM (inactive)
GI50 (SK-MEL-5): > 100 µM (inactive)
GI50 (SR): > 100 µM (inactive)
GI50 (DMS-114): > 100 µM (inactive)
GI50 (U-251): > 100 µM (inactive)
GI50 (K562): > 100 µM (inactive)
GI50 (HOP-62): > 100 µM (inactive)
GI50 (TK-10): > 100 µM (inactive)
GI50 (HCT-116): > 100 µM (inactive)
GI50 (OVCAR-3): > 100 µM (inactive)
GI50 (KM12): > 100 µM (inactive)
